Test results taken from patent US9637485B2, “6,7-dihydrobenzo[a]quinolizin-2-one derivatives for the treatment and prophylaxis of hepatitis B virus infection” (Hoffmann-La Roche Inc., priority 2014, dated 2017).
pIC50: −log10 of the molar value. Like-named read-outs stand apart in the source and are kept apart here.

Columns and labels:
HBV DNA = HBV DNA assay (real-time qPCR/TaqMan of extracellular HBV DNA, HepG2.2.15 cells); assay type: cell-based; conditions: Hepatitis B virus, 144 h, supernatant six days after initial administration, qPCR, read-out: IC50 (Anti HBV DNA production activity)
Description: (§1) HepG2.2.15 cells (Acs et al. Proc Natl Acad Sci USA, 84, (1987), 4641-4), a constitutively HBV-expressing cell line were cultured in DMEM+Glutamax-I medium (Invitrogen, Carlsbad, Calif., USA, Catalog number: 11320082), supplemented with 10% fetal bovine serum (Invitrogen, Catalog number: 10099141) and G418 (Invitrogen, Catalog number: 10131027) at a final concentration of 200 mg/L and maintained in 5% CO2 at 37° C.
The assay employs real-time qPCR (TaqMan) to directly measure extracellular HBV DNA copy number. HepG2.2.15 cells were plated in 96-well microtiter plates. Only the interior wells were utilized to reduce “edge effects” observed during cell culture, the exterior wells were filled with complete medium to help minimize sample evaporation. On the following day, the HepG2.2.15 cells were washed and the medium was replaced with complete medium containing various concentrations of a test compound in triplicate. 3TC was used as the positive control, while media alone was added to cells as a negative control (virus control, VC). Three days later, the culture medium was replaced with fresh medium containing the appropriately diluted drug. […] Antiviral activity was calculated from the reduction in HBV DNA levels (IC50).

HBsAg = HBsAg assay (CLIA of secreted HBsAg in HepG2.2.15 culture supernatant); assay type: cell-based, HBV
Description: as §1
HepG2.2.15 cells were seeded in duplicate into white, 96-well plates at 1.5×10^4 cells/well. The cells were treated with a three-fold serial dilution series of the compounds in DMSO. The final DMSO concentration in all wells was 1% and DMSO was used as no drug control.
The HBsAg chemiluminescence immunoassay (CLIA) kit (Autobio Diagnostics Co., Zhengzhou, China, Catalog number: CL0310-2) was used to measure the levels of secreted HBV antigens semi-quantitatively. For the detection 50 μL/well culture supernatant was used and HBsAg was quantified using HBsAg chemiluminescence immunoassay (CLIA) kit (Autobio Diagnostics Co., Zhengzhou, China, Catalog number: CL0310-2), 50 μl of the supernatant was transferred to the CLIA assay plate and 50 μL of enzyme conjugate reagent was added into each well. The plates were sealed and gently agitated for 1 hour at room temperature. The supernatant-enzyme-mixture was discarded and wells were washed 6 times with 300 μL of PBS. The residual liquid was removed by plating the CLIA plate right side down on absorbent tissue paper. 25 μL of substrates A and B were added to each well. Luminance was measured using a luminometer (Mithras LB 940 Multimode Microplate Reader) after 10 minutes incubation. Dose-response curves were generated and the IC50 value was extrapolated by using the E-WorkBook Suite (ID Business Solutions Ltd., Guildford, UK). The IC50 was defined as the compound concentration (or conditioned media log dilution) at which HBsAg secretion was reduced by 50% compared to the no drug control.

[1] = read-out: IC50 (HBsAg secretion reduced by 50% compared to the no drug control), HepG2.2.15 cells, culture supernatant, HBsAg CLIA
[2] = Hepatitis B virus, HepG2.2.15, read-out: IC50 (HBsAg secretion reduced by 50% compared to the no drug control), HepG2.2.15 cells, culture supernatant, HBsAg CLIA

SMILES	pIC50 (HBV DNA)	pIC50 (HBsAg; [1])	pIC50 (HBsAg; [2])
COCCCOc1cc2c(cc1OC)-c1cc(=O)c(C(=O)O)cn1[C@H](C(C)(C)CO)C2 (single isomer, unassigned) [Example 25, (+)-6-(2-Hydroxy-1,1-dimethyl-ethyl)-10-methoxy-9-(3-methoxypropoxy)-2-oxo-6,7-dihydrobenzo[a]quinolizine-3-carboxylic acid]	> 7.49	8.70	–
COCCCOc1cc2c(cc1OC)-c1cc(=O)c(C(=O)O)cn1C(C(C)(C)COC)C2 (single isomer, unassigned) [Example 28, (+)-10-Methoxy-6-(2-methoxy-1,1-dimethyl-ethyl)-9-(3-methoxypropoxy)-2-oxo-6,7-dihydrobenzo[a]quinolizine-3-carboxylic acid]	9.30	8.52	–
CCc1cc2c(cc1OC)-c1cc(=O)c(C(=O)O)cn1C(C(C)(C)COC)C2 (stereo not shown) [Example 45, 9-Ethyl-10-methoxy-6-(2-methoxy-1,1-dimethyl-ethyl)-2-oxo-6,7-dihydrobenzo[a]quinolizine-3-carboxylic acid]	–	–	7.13
COCC(C)(C)C1Cc2cc(N3CCCC3)c(OC)cc2-c2cc(=O)c(C(=O)O)cn21 (stereo not shown) [Example 46, 10-Methoxy-6-(2-methoxy-1,1-dimethyl-ethyl)-2-oxo-9-pyrrolidin-1-yl-6,7-dihydrobenzo[a]quinolizine-3-carboxylic acid]	–	–	8.05
COCC(C)(C)C1Cc2cc(C#N)c(OC)cc2-c2cc(=O)c(C(=O)O)cn21 (stereo not shown) [Example 47, 9-Cyano-10-methoxy-6-(2-methoxy-1,1-dimethyl-ethyl)-2-oxo-6,7-dihydrobenzo[a]quinolizine-3-carboxylic acid]	–	–	6.64
